# Patent US11242347B2, “2-phenyl-3,4-dihydropyrrolo[2,1-Ff] [1,2,4]triazinone derivatives as phosphodiesterase inhibitors and uses thereof” (TOPADUR PHARMA AG, priority 2015, dated 2022)
# How the values were obtained:
# [1] = test system: human pulmonary artery smooth muscle cells (hPASMC); test: Measurements of cGMP in human pulmonary artery smooth muscle cells (hPASMC); format: cell-based; settings: incubation 15 or 30 min; compared with sildenafil
# Description: Human Pulmonary Artery Smooth Muscle Cells (hPASMC) were purchased from Clonetics™ Lonza (Lonza, reference number CC-2581) and cultured in Clonetics' smooth muscle growth medium (Clonetics™ SmGM™-2 with BulletKit™ growth factor supplements (Lonza, reference number CC-3182) at 37° C. in 5% CO2. Culture medium was replaced each 48 hours. Cells were grown in 75 cm^2 culture plates.
# 48 h before the experiments, cells were trypsinized (Trypsin kit One ReagentPack™ (CC-5034), Lonza) and plated in 96 well plates precoated with collagen I at 10000 cells per well. 24 h before the experiments culture medium was replaced by serum-reduced (0.5% FBS) medium.
# Measurements of intracellular cGMP were performed using the Amersham cGMP EIA System (GE Healthcare, RPN226) following the instructions of the manufacturer. The assay has a sensitivity of 2 fmol cGMP per well. Briefly, incubations were terminated by adding Amersham's lysis buffer 1 and cells left for 10 min under agitation to ensure complete lysis. cGMP in samples was then acetylated using triethylamine and acetic anhydride and determined by a competitive ELISA. The ELISA is based on the competition between acetylated cGMP in cell culture lysates and a peroxidase-labelled cGMP conjugate for limited binding sites on a cGMP specific antiserum immobilized on pre-coated 96 well MTP. cGMP was determined based on a standard curve. […]
# [2] = test system: phenylephrine-precontracted rat aortic rings; test: Isometric tension studies: relaxation of phenylephrine-precontracted rat aortic rings; settings: for IC40: concentration where 40% relaxation was achieved; for EC50 / Emax: Rattus norvegicus
# Description: After 1 week of acclimatization, rats were anesthetized. Appropriate depth of anesthesia was determined by the absence of the leg flexor response and the eyelid reflex. Then, the thorax was quickly opened by a midline incision, and the rat was sacrificed by cutting the heart and exsanguination.
# Indomethacin (1 μM) was added to the saline solution.
# Eligible rings were then washed several times to restore tension to the baseline level.
# In some experiments, the entire length of the thoracic aorta was functionally denuded of the endothelial layer by gently scraping the luminal surface with a 1.5 mm glass rod. […] Rings were then washed several times to restore tension to the baseline level.
# Indomethacin (1 μM) was added to the saline solution. […] Only vessels with at least 60% relaxation to 1 μM ACh from the tension with 300 nM were eligible.
# The preparations were allowed to equilibrate for 60 min in Krebs with high glucose (25 mM) before contraction to a new single concentration of PE (300 nM).
# Finally, sodium nitroprusside (0.1 mM) was added, in order to obtain maximum relaxation of arterial rings.
# The amount of relaxation (percent values as means±SEM) was quantified as percent relaxation from the tension (plateau) achieved with phenylephrine.
# Data are presented as mean±SEM. Statistical analysis of results has been performed by analysis of variance (ANOVA) either parametric or non-parametric (Kruskal-Wallis), followed by Bonferroni test or Dunn tests as appropriate (GraphPad Software Inc, San Diego, Calif., USA). Significance was accepted when P<0.05. Non-linear regression was conducted with GraphPad Software).
smiles,measurement,setting,value
"CCCOc1ccc(S(=O)(=O)N2CCC(CCO[N+](=O)[O-])CC2)cc1-c1nn2c(CCC)c(/C=N/O)c(C)c2c(=O)[nH]1 [Compound 1v, (E)-2-(1-((3-(6-((hydroxyimino)methyl)-5-methyl-4-oxo-7-propyl-3,4-dihydropyrrolo[2,1-f][1,2,4]triazin-2-yl)-4-propoxyphenyl)sulfonyl)piperidin-4-yl)ethyl nitrate]","cGMP formation in hPASMC, activity in words",[1],significantly higher activity as compared to the reference inhibitor sildenafil
same,IC40,[2]; High Glucose (25 mM),0.66 nM
same,IC40,[2]; Intact Endothelium (E+),0.0082 nM
same,IC40,[2]; L-NAME (100 μM),1.412 nM
same,EC50,[2]; High Glucose (25 mM),0.181 nM
same,Emax,[2]; High Glucose (25 mM),64.2%
same,EC50,[2]; Intact Endothelium (E+),0.0111 nM
same,Emax,[2]; Intact Endothelium (E+),85.1%
same,EC50,[2]; L-NAME (100 μM),0.267 nM
same,Emax,[2]; L-NAME (100 μM),62%
same,EC50,[2]; Without Endothelium,0.218 nM
same,Emax,[2]; Without Endothelium,48.7%
same,lower concentration for 40% relaxation related to sildenafil,[2]; Without Endothelium,> 130 fold
same,IC40,[2]; Without Endothelium,7.527 nM
same,more potent relaxation as compared to sildenafil (based on EC50),[2]; absence of endothelium,about 95 fold
same,more potent relaxation as compared to sildenafil (based on EC50),[2]; intact endothelium,about 17 fold
same,"relaxation of rat aortic rings, result in words",[2]; intact endothelium (FIG. 2A),more potent and effective than Sildenafil
same,more potent relaxation as compared to sildenafil (based on EC50),"[2]; intact endothelium, pre-exposed to high (25 mM) glucose for 60 min",about 110 fold
same,"relaxation of rat aortic rings, result in words",[2]; pre-exposed to high glucose (25 mM) (FIG. 2B),clearly more potent and efficacious than 1r
same,more potent relaxation as compared to sildenafil (based on EC50),[2]; presence of L-NAME,about 22 fold
same,lower concentration for 40% relaxation related to sildenafil,[2]; with L-NAME,~68 fold
same,lower concentration for 40% relaxation related to sildenafil,[2]; with high glucose,~1250 fold
same,lower concentration for 40% relaxation related to sildenafil,[2]; with intact endothelium,about 24 fold
